Source: US20210309677A1, “NOVEL AMINOPHOSPHINIC DERIVATIVES AS AMINOPEPTIDASE A INHIBITORS” (QUANTUM GENOMICS, priority 2018, published 2021)

Target: T1, recombinant mouse APA (Mus musculus, UniProt P16406)
T1 sequence (P16406 1-945): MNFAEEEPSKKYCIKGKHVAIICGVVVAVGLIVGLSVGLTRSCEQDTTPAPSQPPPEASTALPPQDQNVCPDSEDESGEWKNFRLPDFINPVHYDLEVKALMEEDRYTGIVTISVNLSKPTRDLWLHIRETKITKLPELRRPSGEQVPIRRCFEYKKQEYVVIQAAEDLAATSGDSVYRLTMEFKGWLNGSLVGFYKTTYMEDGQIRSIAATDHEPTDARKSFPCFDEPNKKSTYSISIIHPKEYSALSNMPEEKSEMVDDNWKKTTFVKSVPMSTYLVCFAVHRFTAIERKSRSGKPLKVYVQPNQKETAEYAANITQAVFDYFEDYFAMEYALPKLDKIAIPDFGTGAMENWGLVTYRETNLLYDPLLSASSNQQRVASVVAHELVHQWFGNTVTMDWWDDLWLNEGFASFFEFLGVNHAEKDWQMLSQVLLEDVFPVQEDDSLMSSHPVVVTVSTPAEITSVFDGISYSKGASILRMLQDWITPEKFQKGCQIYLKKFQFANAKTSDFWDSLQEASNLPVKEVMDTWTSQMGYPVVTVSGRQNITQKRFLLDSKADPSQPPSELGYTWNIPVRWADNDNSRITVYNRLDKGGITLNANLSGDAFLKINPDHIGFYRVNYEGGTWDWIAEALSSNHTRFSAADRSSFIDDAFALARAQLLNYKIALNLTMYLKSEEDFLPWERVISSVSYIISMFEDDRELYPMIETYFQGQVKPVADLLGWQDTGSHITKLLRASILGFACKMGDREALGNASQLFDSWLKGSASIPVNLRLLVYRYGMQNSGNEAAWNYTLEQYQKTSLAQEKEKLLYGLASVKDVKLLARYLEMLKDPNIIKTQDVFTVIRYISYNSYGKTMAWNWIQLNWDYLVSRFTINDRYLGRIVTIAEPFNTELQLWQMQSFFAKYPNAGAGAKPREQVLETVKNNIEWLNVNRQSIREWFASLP
Assay: Measurement of APA activity in vitro (hydrolysis of GluβNa, colorimetric)
Type: biochemical
Details: 200 μM Glu-βNa, pH 7.4, 37° C., 4 mM CaCl2, read-out: In vitro inhibition of aminopeptidase A, IC50 classification
Description: Measurement of APA activity in vitro is based on the protocol of Goldbarg adjusted to the scale of assaying on microplates (Pro Bind™ 3915) (Chauvel et al., 1994). In vitro, in the presence of calcium ions, APA hydrolyses a synthetic substrate α-L-glutamyl-β-naphthylamide (GluβNa) to glutamate and β-naphthylamine ((βNa). A diazotation reaction in acidic medium makes it possible to reveal the β-naphthylamine by formation of a violet-coloured complex: spectrophotometric measurement then makes it possible to know the amount of complex formed and, by reference to a standard curve produced with increasing concentrations of β-naphthylamine, to deduce the enzymatic activity of the sample.
The Glu-βNa substrate (Bachem) and the β-naphthylamine (Sigma) are dissolved in 50% DMSO (dimethyl sulphoxide) and 0.1 N HCl respectively, and conserved at −20° C. at a concentration of 10^−2 M. The diazotation reaction is carried out in the presence of sodium nitrite (87 mM), ammonium sulfamate (130 mM) and N-(1-naphthyl)-ethylenediamine dihydrochloride (23 mM in 95% ethanol).
The reaction takes place at pH 7.4 in 50 mM tris-HCl buffer, in the presence of calcium (4 mM CaCl2); recombinant mouse APA is incubated at 37° C. in the presence of the substrate (200 μM Glu-βNa) and in the presence or absence of various concentrations of the inhibitor to be tested, in a final volume of 100 μL. The reaction is stopped by adding 10 μL, of 3N HCl. A standard curve of β-naphthylamine was prepared in parallel by diazotizing increasing concentrations (up to 0.2 mM) of 2-naphthylamine in 0.1 N HCl.
The following are added to each well: 25 μL of sodium nitrite (NaNO2) (mix, wait 5 minutes at room temperature), 50 μI, of ammonium sulfamate (mix, wait 5 minutes at room temperature), then add 25 μL of N-(1-naphthyl) ethylenediamine dihydrochloride (mix, wait for stabilization of the violet colour for approximately 30 minutes at 37° C.). The absorbance is then measured at 540 nm.
The compound EC33 ((S)-3 amino-4-mercapto-butylsulfonic acid) described in application WO 99/36066 was used as a reference compound.

SMILES | IC50 [nM]
N[C@H](CS)CCS(=O)(=O)O [EC33, (S)-3 amino-4-mercapto-butylsulfonic acid, reference compound] | 300 to 10000
CCCCCP(=O)(O)C(N)CCC(=O)O (centres unmarked) [Example 4, 4-amino-4-[hydroxy(pentyl)phosphoryl]butanoic acid] | 30 to 300
CCCCCCP(=O)(O)C(N)CCC(=O)O (centres unmarked) [Example 5, 4-amino-4-[hexyl(hydroxy)phosphoryl]butanoic acid] | 30 to 300
NC(CCC(=O)O)P(=O)(O)CCCC(F)(F)F (centres unmarked) [Example 6, 4-amino-4-[hydroxy(4,4,4-trifluorobutyl)phosphoryl]butanoic acid] | 30 to 300
NC(CCC(=O)O)P(=O)(O)CCC1CCCCC1 (centres unmarked) [Example 7, 4-amino-4-[(2-cyclohexylethyl)(hydroxy)phosphoryl]butanoic acid] | 30 to 300

Other lines, results leading:

IC50 [nM] | SMILES
30 to 300 | CC(C)CCP(=O)(O)C(N)CCC(=O)O (centres unmarked) [Example 1, 4-amino-4-[hydroxy(3-methylbutyl)phosphoryl]butanoic acid]
30 to 300 | CC(C)CCCP(=O)(O)C(N)CCC(=O)O (centres unmarked) [Example 2, 4-amino-4-[hydroxy(4-methylpentyl)phosphoryl]butanoic acid]
30 to 300 | CC(C)CCCCP(=O)(O)C(N)CCC(=O)O (centres unmarked) [Example 3, 4-amino-4-[hydroxy(5-methylhexyl)phosphoryl]butanoic acid]
< 30 | NC(CCC(=O)O)P(=O)(O)CC1CCC1 (centres unmarked) [Example 8, 4-amino-4-[(cyclobutylmethyl)(hydroxy)phosphoryl]butanoic acid]
< 30 | NC(CCC(=O)O)P(=O)(O)CC1CCCC1 (centres unmarked) [Example 9, 4-amino-4-[(cyclopentylmethyl)(hydroxy)phosphoryl]butanoic acid]
< 30 | NC(CCC(=O)O)P(=O)(O)CC1CCCCC1 (centres unmarked) [Example 10, 4-amino-4-[(cyclohexylmethyl)(hydroxy)phosphoryl]butanoic acid]
